Data reported in US10941153B2, “Substituted phenethylamine derivatives” (REGENTS OF THE UNIVERSITY OF MINNESOTA, priority 2018, dated 2021).

Assays:
5-HT7 receptor = 5-HT7 receptor (Homo sapiens, UniProt P34969); experiment: PDSP GPCR binding affinity, 5-HT7; conditions: for 5-HT7 potency, in words: relative to compound 4i
Source text: (§1) In particular, the Ki (nM) value is provided. […] FIGS. 14-15 are graphical views of Log P vs. Ki, 5-HT2B receptor and Log P vs. Ki, sigma-1 receptor, respectively, summarizing the data presented in Table 6, according to one or more embodiments of the present disclosure. Assay data for compound 53545 against 5-HT7A receptor is presented in FIG. 18 and Tables 8-9 provided below: […]

5-HT1A receptor = target: T1, 5-HT1A receptor (Homo sapiens, UniProt P08908); experiment: PDSP GPCR binding affinity, 5-HT1A
T1 sequence (P08908 1-422): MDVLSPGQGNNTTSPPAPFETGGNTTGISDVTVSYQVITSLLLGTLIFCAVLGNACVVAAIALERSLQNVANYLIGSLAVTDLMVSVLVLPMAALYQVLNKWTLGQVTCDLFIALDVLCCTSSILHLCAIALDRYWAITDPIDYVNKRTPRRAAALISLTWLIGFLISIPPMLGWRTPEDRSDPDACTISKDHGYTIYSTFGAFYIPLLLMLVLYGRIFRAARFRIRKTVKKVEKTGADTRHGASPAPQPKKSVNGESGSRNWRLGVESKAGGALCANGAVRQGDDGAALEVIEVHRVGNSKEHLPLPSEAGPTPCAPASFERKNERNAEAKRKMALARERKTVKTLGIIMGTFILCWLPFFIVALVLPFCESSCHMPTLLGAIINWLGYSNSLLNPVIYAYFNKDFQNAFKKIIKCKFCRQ
Source text: as §1

[1] = system: human GPCR (serotonin, adrenergic, dopamine, histamine, muscarinic, opioid, sigma and others); experiment: PDSP broad GPCR screen; conditions: wider array of GCPR, Table 5
Method: The G-Protein-coupled receptor (GPCR) binding affinity of the compounds of the present disclosure was assessed through the Psychoactive Drug Screening Program.
An initial screen of three primary amines was submitted. […] The molecules were screened across a wide range of human GPCR including serotonin (5-HT), α- and β-adrenergic (Alpha and Beta), dopamine (D), histamine (H), muscarinic (M), opioid (OR), sigma (σ), and others (Table 1).

5-HT2B receptor = 5-HT2B receptor (Homo sapiens, UniProt P41595); experiment: PDSP GPCR binding affinity, 5-HT2B
Sequence of 5-HT2B receptor (P41595 whole entry): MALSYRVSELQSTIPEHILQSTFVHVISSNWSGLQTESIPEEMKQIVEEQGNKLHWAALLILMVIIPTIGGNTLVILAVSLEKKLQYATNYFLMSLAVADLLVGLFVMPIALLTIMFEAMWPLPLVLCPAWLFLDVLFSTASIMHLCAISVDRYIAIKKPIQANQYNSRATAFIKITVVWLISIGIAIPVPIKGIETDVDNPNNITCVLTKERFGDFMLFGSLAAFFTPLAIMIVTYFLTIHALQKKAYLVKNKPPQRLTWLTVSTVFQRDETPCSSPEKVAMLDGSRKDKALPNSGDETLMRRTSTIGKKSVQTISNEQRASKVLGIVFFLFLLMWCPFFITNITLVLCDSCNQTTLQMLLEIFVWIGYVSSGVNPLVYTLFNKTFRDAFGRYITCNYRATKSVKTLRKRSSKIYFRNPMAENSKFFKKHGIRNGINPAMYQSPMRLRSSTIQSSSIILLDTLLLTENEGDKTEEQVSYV
Source text: In particular, the Ki (nM) value is provided. […] FIGS. 14-15 are graphical views of Log P vs. Ki, 5-HT2B receptor and Log P vs. Ki, sigma-1 receptor, respectively, summarizing the data presented in Table 6, according to one or more embodiments of the present disclosure. Assay data for compound 53545 against 5-HT7A receptor is presented in FIG. 18 and Tables 8-9 provided below:
Assay data for compound 53529 against 5-HT2B receptor is presented in FIG. 22 and Tables 12-13 provided below: […]

σ1 receptor = target: T2, σ1 receptor (UniProt Q99720); experiment: PDSP binding affinity, sigma-1; set-up: species or system human
T2 construct: Ki, Sigma-1; σ1 potency and selectivity, in words; other: relative to compound 4e
Source text: Assay data for compound 53558 against sigma-1 receptor is presented in FIG. 21 and Tables 10 and 11 below: […]

Sequence of 5-HT7 receptor (P34969 1-445 isoform P34969-2): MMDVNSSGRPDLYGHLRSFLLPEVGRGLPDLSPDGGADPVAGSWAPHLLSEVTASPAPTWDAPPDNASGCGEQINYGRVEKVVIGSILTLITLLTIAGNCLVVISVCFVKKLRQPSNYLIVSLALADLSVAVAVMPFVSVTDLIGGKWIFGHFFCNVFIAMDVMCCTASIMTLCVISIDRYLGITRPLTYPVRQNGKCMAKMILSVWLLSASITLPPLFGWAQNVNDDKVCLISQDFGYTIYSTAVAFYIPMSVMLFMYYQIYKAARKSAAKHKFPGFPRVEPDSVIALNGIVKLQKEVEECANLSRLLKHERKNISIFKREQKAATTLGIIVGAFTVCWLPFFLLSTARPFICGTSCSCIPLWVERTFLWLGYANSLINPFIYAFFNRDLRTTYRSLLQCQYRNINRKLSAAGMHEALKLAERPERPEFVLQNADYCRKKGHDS

## CC12CN(c3ccccc3)c3ccccc3C1CCN2 (stereo not shown) [Compound 4i]
5-HT7 receptor
  Ki: 6.3 nM
  selectivity for 5-HT7 vs next most sensitive receptor, σ1: ~75 fold
5-HT1A receptor
  Ki: > 10000 nM
[1]
  activity across the additional GCPR investigated: minimal activity

## Cc1cc(C)c2c(c1)OC[C@@]1(C)NCC[C@@H]21 [Compound 4f]
5-HT2B receptor
  5-HT2B binding, in words: enhanced 5-HT2B binding

## CC(=O)N1CC[C@H]2c3ccccc3N(c3ccccc3)C[C@]21C [Compound 11c]
5-HT7 receptor
  5-HT7 potency, in words: removed activity

## C[C@@]12COc3cc(O)ccc3[C@@H]1CCN2 [Compound 4d]
σ1 receptor
  σ1 binding, in words: detrimental to activity

## CN1CC[C@H]2c3ccccc3N(c3ccccc3)C[C@]21C [Compound 10c]
5-HT7 receptor
  5-HT7 potency, in words: further enhanced

## SB 206553 [reference compound]
5-HT2B receptor; 5-HT2B receptor, competition binding curve, SB 206553 as reference, read-out: Ki (Table 12)
  Ki: 9.79 nM

## C[C@@]12COc3cc(OCc4ccccc4)ccc3[C@@H]1CCN2 [Compound 4c]
σ1 receptor
  σ1 binding, in words: potent σ1 ligand
